Here are results for 17 molecules from ChEMBL document CHEMBL1153460, “Potent aza-peptide derived inhibitors of HCV NS3 protease” (Bioorg Med Chem Lett, 2009).

Active and inactive are the calls of the source. The calls are words filed in the database; no cut-off is given here. Starred links: 1 amine or outer side, 2 acyl side, 3 side chain; linkers in the order of their positions; H or OH if unused. Non-standard residues stand in square brackets, D forms with d. Residues, ends and D or L forms follow the SMILES beside them. *: point of attachment. Pro(4R-OPh) = O=C(O)[C@@H]1C[C@@H](Oc2ccccc2)CN1; NH(1R-phenylethyl) = C[C@@H](N*)c1ccccc1; azaNva = CCCN(N[*:1])C(=O)[*:2]; Aad = N[C@@H](CCCC(=O)O)C(=O)O; Tle = CC(C)(C)[C@H](N)C(=O)O

Experiment [1] is described as follows: Inhibition of HCV NS3 protease by continuous spectrophotometric assay. Details: species or system Hepacivirus hominis.
The test system of another experiment is Hepatitis C virus. Briefly: Antiviral activity against HCV by replicon-based cellular assay. The experiment is classed as functional. For orientation: In antiviral work, replicon cells carry a viral genome segment that copies itself.
Experiment [2] is described as follows: Selectivity ratio, Ki for human neutrophil elastase to Ki for HCV NS3 protease.

One may read the Ki as a measure of affinity in units of concentration, obtained from inhibition or displacement. Low values mean tighter binding, high ones weaker binding. In general, EC90 refers to the point of the concentration-response curve where the effect stands at 90%. For `CCCN(NC(=O)[C@@H]1[C@@H]2[C@H](CN1C(=O)[C@@H](NC(=O)N[C@H](CN1C(=O)C3CCC(C3)C1=O)C(C)(C)C)C(C)(C)C)C2(C)C)C(=O)c1ccccc1`, the affinity in experiment [1] corresponds to a Ki of 52000 nM. In addition, the EC90 result with Hepatitis C virus (Hepacivirus hominis) was “inactive”.

Molecule `CCCN(NC(=O)[C@@H]1[C@@H]2[C@H](CN1C(=O)[C@@H](NC(=O)N[C@H](CN1C(=O)C3CCC(C3)C1=O)C(C)(C)C)C(C)(C)C)C2(C)C)C(=O)C1CC1` returned a Ki in experiment [1] of 3000 nM. The molecule further came in with a 90% effect concentration (EC90) in the experiment with Hepatitis C virus of 15000 nM.

`CCCN(NC(=O)[C@@H]1[C@@H]2[C@H](CN1C(=O)[C@@H](NC(=O)N[C@H](CN(C)S(C)(=O)=O)C(C)(C)C)C(C)(C)C)C2(C)C)C(=O)N[C@H](C)c1ccccc1` came in with an inhibition constant (Ki) in experiment [1] of 110 nM. This molecule also came in with a 90% effect concentration (EC90) in the experiment on Hepatitis C virus of 700 nM.

`CCCN(NC(=O)[C@@H]1[C@@H]2[C@H](CN1C(=O)[C@@H](NC(=O)N[C@H](CN1C(=O)C3CCC(C3)C1=O)C(C)(C)C)C(C)(C)C)C2(C)C)C(=O)NC(C)(C)C`: affinity in experiment [1] was put at a Ki of 1600 nM. Besides, the 90% effect level in the experiment with Hepatitis C virus (EC90) was put at 8000 nM.

`C[C@@H](NC(=O)N(CC1CC1)NC(=O)[C@@H]1[C@@H]2[C@H](CN1C(=O)[C@@H](NC(=O)N[C@H](CN1C(=O)CC(C)(C)CC1=O)C(C)(C)C)C(C)(C)C)C2(C)C)c1ccccc1` registered a Ki in experiment [1] of 200 nM. The EC90 result in the experiment with Hepatitis C virus (Hepacivirus hominis) was “inactive”.

In experiment [1], `CCCN(NC(=O)[C@@H]1[C@@H]2[C@H](CN1C(=O)[C@@H](NC(=O)N[C@H](CN1C(=O)C3CCC(C3)C1=O)C(C)(C)C)C(C)(C)C)C2(C)C)C(=O)NC1CC1` yielded an inhibition constant (Ki) of 750 nM. This molecule yielded an EC90 in the experiment with Hepatitis C virus of 6000 nM.

The molecule `CCCN(NC(=O)[C@@H]1C[C@@H](Oc2ccccc2)CN1C(=O)[C@@H](NC(=O)[C@@H](NC(=O)[C@H](CCCC(=O)O)NC(=O)[C@H](CCCC(=O)O)NC(C)=O)C(C)C)C(C)(C)C)C(=O)N[C@H](C)c1ccccc1` (Ac-[Aad][Aad]V[Tle][Pro(4R-OPh)][azaNva]-{NH(1R-phenylethyl)}) returned a Ki in experiment [1] of 78 nM.

In experiment [1], `CC(C)(C)NC(=O)N[C@H](C(=O)N1C[C@H]2[C@@H]([C@H]1C(=O)NC(CC1CCC1)C(=O)C(N)=O)C2(C)C)C(C)(C)C` (stereo not given in full) [BOCEPREVIR] registered a Ki of 14 nM. This molecule yielded an EC90 in the experiment on Hepatitis C virus of 350 nM. Also, the Ratio Ki in experiment [2] worked out at 2200.

As to `CCCN(NC(=O)[C@@H]1[C@@H]2[C@H](CN1C(=O)[C@@H](NC(=O)N[C@H](CN(C)S(=O)(=O)c1cccnc1)C(C)(C)C)C1CCCCC1)C2(C)C)C(=O)N[C@H](C)c1ccccc1`, in experiment [1], the Ki came to 230 nM. For the same molecule, the EC90 entry in the experiment with Hepatitis C virus (Hepacivirus hominis) is “inactive”.

In the case of `CCCN(NC(=O)[C@@H]1[C@@H]2[C@H](CN1C(=O)[C@@H](NC(=O)N[C@H](CN1C(=O)CC(C)(C)CC1=O)C(C)(C)C)C(C)(C)C)C2(C)C)C(=O)N[C@H](C)c1ccccc1`, in experiment [1], the inhibition constant (Ki) stood at 64 nM. It took 300 nM to reach the 90% level in the experiment with Hepatitis C virus (EC90). For the same molecule, in experiment [2], the Ratio Ki amounted to 960.

Turning to `CCCN(NC(=O)[C@@H]1[C@@H]2[C@H](CN1C(=O)[C@@H](NC(=O)N[C@H](CN1C(=O)C3CCC(C3)C1=O)C(C)(C)C)C(C)(C)C)C2(C)C)C(=O)Nc1ccccc1`, in experiment [1], the inhibitory constant (Ki) is 950 nM. In the experiment with Hepatitis C virus, this molecule came in with an EC90 of 2400 nM.

On to `C[C@@H](NC(=O)N(CC1CC1)NC(=O)[C@@H]1[C@@H]2[C@H](CN1C(=O)[C@@H](NC(=O)N[C@H](CN1C(=O)C3CCC(C3)C1=O)C(C)(C)C)C(C)(C)C)C2(C)C)c1ccccc1`, for which the affinity in experiment [1], expressed as Ki, was 250 nM. This molecule had an EC90 in the experiment with Hepatitis C virus of 1100 nM.

On to `CCCN(NC(=O)[C@@H]1[C@@H]2[C@H](CN1C(=O)[C@@H](NC(=O)N[C@H](CN1C(=O)C3CCC(C3)C1=O)C(C)(C)C)C(C)(C)C)C2(C)C)C(=O)N[C@H](C)c1ccccc1`, for which affinity in experiment [1] was put at a Ki of 32 nM. The molecule also yielded a concentration for an effect of 90% (EC90) in the experiment with Hepatitis C virus of 250 nM.

In experiment [1], `CCCN(NC(=O)[C@@H]1[C@@H]2[C@H](CN1C(=O)[C@@H](NC(=O)N[C@H](CN1C(=O)C3CCC(C3)C1=O)C(C)(C)C)C(C)(C)C)C2(C)C)C(=O)NC1CCCCC1` came in with a Ki of 1300 nM. The molecule further yielded an EC90 with Hepatitis C virus of 16000 nM.

`CCCN(NC(=O)[C@@H]1[C@@H]2[C@H](CN1C(=O)[C@@H](NC(=O)N[C@H](CN1C(=O)C3CCC(C3)C1=O)C(C)(C)C)C(C)(C)C)C2(C)C)C(=O)CCc1ccccc1` had an inhibition constant Ki in experiment [1] of 720 nM. In the experiment with Hepatitis C virus, this molecule gave an EC90 of 3500 nM.

Consider `CCCN(NC(=O)[C@@H]1[C@@H]2[C@H](CN1C(=O)[C@@H](NC(=O)N[C@H](CN1C(=O)C3CCC(C3)C1=O)C(C)(C)C)C(C)(C)C)C2(C)C)C(=O)OC(C)(C)C`, for which the inhibition constant (Ki) in experiment [1] was 3100 nM. Further, in the experiment on Hepatitis C virus, the EC90 is 24000 nM.

Molecule `CCCN(NC(=O)[C@@H]1[C@@H]2[C@H](CN1C(=O)[C@@H](NC(=O)N[C@H](CN1C(=O)C3CCC(C3)C1=O)C(C)(C)C)C(C)(C)C)C2(C)C)C(C)=O` returned a Ki in experiment [1] of 22000 nM. The EC90 entry with Hepatitis C virus (Hepacivirus hominis) is “inactive”.
